Results: publication PMC6278568, “Discovery of 3-Amino-2-Hydroxypropoxyisoflavone Derivatives as Potential Anti-HCV Agents” (Molecules, 2018)
“Also recorded” adds a separate entry of the source.

How the values were obtained:
HCV replication = assay: Anti-HCV activity in Ava-5 HCV subgenomic replicon cells (firefly luciferase assay); type: cell-based, Hepatitis C virus; settings: Ava-5 cells
Method: Ava-5 cells were treated with compounds 6a–i or the positive ribavirin for three days, and then analyzed through firefly luciferase assay. The concentration that inhibited 50% HCV replication (EC50), the concentration that inhibited 50% cell growth (CC50), and the selectivity index (SI: CC50/EC50) of compounds were determined with ribavirin as a positive control.
(§1) Compounds were dissolved in DMSO at 10 mM and then diluted in culture medium.
(§2) Ava5 cells, an engineered HCV subgenomic replicon cell line, were cultured in Dulbecco′s modified Eagle′s medium (DMEM) with 10% heat-inactivated fetal bovine serum, 1% antibiotic–antimycotic, and 1% non-essential amino acids. Ava5 cells were maintained in DMEM with 1 mg mL^−1 G418 to maintain the stable expression of replicon.

[1] = Cytotoxicity in Ava-5 cells (XTT method); type: cell-based; settings: human, Ava5 cells (HCV subgenomic replicon cell line); Ava-5 cells, 72 h, XTT method; read-out: CC50 (concentration causing a 50% growth inhibition of uninfected ava-5 cells)
Method: as §1, §2
(§3) For cytotoxicity tests, run in parallel with antiviral assays, plates at an initial density of (5 × 10^3 cells/well) were treated with or without serial dilutions of test compounds. Cell viability was determined after 72 h at 37 °C in a humidified CO2 (5%) atmosphere by the (2,3-bis[2-methyloxy-4-nitro-5-sulfophenyl]-2H-tetrazolium-5-carboxanilide) (XTT) method.

ava-5 cells = assay: Cytotoxicity in Ava-5 cells (XTT method); type: cell-based
Method: as §1, §2, §3

HCV RNA = HCV RNA expression in Ava-5 cells by RT-qPCR; type: cell-based, Hepatitis C virus; settings: Ava-5 cells, 2.5, 5, 10 and 20 μM, 3 days, normalized by GAPDH mRNA
Method: (§4) To further confirm the anti-HCV effect of compound 6b, we treated compound 6b at indicated concentrations in Ava-5 cells for 3 days. […] Treatment of 0.1% dimethyl sulfoxide (DMSO) served as a mock control on inhibition of HCV replication (Figure 3 and Figure 4).
Figure 3 Inhibition of HCV RNA expression in HCV-infected Ava-5 cells by 6b. Ava-5 cells were treated with 2.5, 5, 10 and 20 μM of 6b for 3 days. Total RNA was extracted and quantified HCV RNA levels by RT-qPCR. HCV RNA expression was normalized by cellular GAPDH mRNA. Treatment with 0.1% DMSO served as a mock control. The results are expressed as the means ± standard deviations (SD) of triplicate experiments.

[2] = test system: HCV protein synthesis (NS5B); assay: HCV protein synthesis in Ava-5 cells by western blotting; type: cell-based, Hepatitis C virus; settings: Ava-5 cells, 2.5, 5, 10 and 20 μM, 3 days
Method: as §4
Ava5 cells were seeded in 24-well plates at a density of 5 × 10^4 cells per well overnight and treated with indicated reagent at proper concentrations for 3 days. Cells were washed with cold phosphate buffer saline (PBS) and lysed by radioimmunoprecipitation assay (RIPA) lysis buffer (50 mM Tris-HCl, pH 7.5, 150 mM NaCl, 1% Nonidet P-40, 2 mM EDTA, 1 mM EGTA, 1 mM NaVO3, 10 mM NaF, 1 mM DTT, 1 mM PMSF, 25 μg/mL aprotinin, and 25 μg/mL leupeptin) and stored at −20 °C. The protein concentration was determined by the Bradford method. Ten μg protein were separated by 10% SDS-PAGE and transferred onto a polyvinylidene difluorid (PVDF) membrane. The membrane was blocked with 5% non-fat dried milk and incubated with specific antibodies against NS5B (1:5000; Abcam Cambridge, MA, USA), glyceraldehyde-3-phosphate dehydrogenase (GAPDH) and anti-HO-1 (1:3000, Abcam Cambridge, MA, USA). Antibodies were diluted in 5% milk containing Tris-buffered saline (TBS) and 0.5% Tween. The blotting signal was developed using an ECL detection kit (PerkinElmer, Norwalk, CT, USA) and was counted by the software Quantity One (Bio-Rad, Foster, CA, USA). […]

HO-1 protein expression = HO-1 protein expression in Ava-5 cells by western blotting; type: cell-based; settings: 10 μM, 3 days, compared with DMSO-treated cells
Method: To determine whether compounds 6b, 6e, 6h and 6i have impact on HO-1 protein expression in Ava-5 cells, we treated these compounds at 10 μM in Ava5 cells.
Ava5 cells were seeded in 24-well plates at a density of 5 × 10^4 cells per well overnight and treated with indicated reagent at proper concentrations for 3 days. Cells were washed with cold phosphate buffer saline (PBS) and lysed by radioimmunoprecipitation assay (RIPA) lysis buffer (50 mM Tris-HCl, pH 7.5, 150 mM NaCl, 1% Nonidet P-40, 2 mM EDTA, 1 mM EGTA, 1 mM NaVO3, 10 mM NaF, 1 mM DTT, 1 mM PMSF, 25 μg/mL aprotinin, and 25 μg/mL leupeptin) and stored at −20 °C. The protein concentration was determined by the Bradford method. Ten μg protein were separated by 10% SDS-PAGE and transferred onto a polyvinylidene difluorid (PVDF) membrane. The membrane was blocked with 5% non-fat dried milk and incubated with specific antibodies against NS5B (1:5000; Abcam Cambridge, MA, USA), glyceraldehyde-3-phosphate dehydrogenase (GAPDH) and anti-HO-1 (1:3000, Abcam Cambridge, MA, USA). Antibodies were diluted in 5% milk containing Tris-buffered saline (TBS) and 0.5% Tween. The blotting signal was developed using an ECL detection kit (PerkinElmer, Norwalk, CT, USA) and was counted by the software Quantity One (Bio-Rad, Foster, CA, USA).
Compound 6b, 6e, 6h and 6i induced HO-1 protein expression. Ava-5 cells were treated with compounds at 10 μM for 3 days. The cell lysate was subjected to western blotting with anti-HO-1 and anti-GAPDH antibodies.

[3] = test system: Nrf2 / ARE transactivation; assay: ARE transactivation, p3xARE-Luc reporter in Ava-5 cells (luciferase assay); type: cell-based; settings: p3xARE-Luc-transfected Ava-5 cells, 1 and 10 μM, 3 days
Description: Heme oxygenase 1 expression is regulated by the transcription factors Nrf2, Keap1, and Bach1 through the binding of ARE in its promoter region; therefore, we determined whether isoflavones-mediated HO-1 induction was dependent on ARE transactivation by treating p3xARE-Luc-transfected ava-5 cells with increasing concentrations of […] for 3 days.
Ava5 cells were transfected with the HO-1 promoter-driven luciferase plasmid, pHO-1-Luc, using the T-pro^TM transfection reagent (Ji-Feng Biotechnology Co., Ltd., Taipei, Taiwan) according to the manufacturer′s instructions. The transfected cells were treated with compounds at various concentrations for 3 days. Each transfection complex contains 0.1 μg pSEAP, a secreted alkaline phosphatase (SEAP) expression vector, for normalization luciferase activity serving as a transfection control. The luciferase activity assay was performed using the Bright-Glo Luciferase assay system (Promega) (Madison, WI, USA) according to the manufacturer′s instructions.
Figure 6 Isoflavones inhibited HCV replication by upregulating Nrf2 expression. Compound 6b, 6e, 6h and 6i stimulated ARE transactivation in Ava-5 cells. The antioxidant response reporter plasmid, p3xARE-Luc, was transfected into Ava-5 cells and then treated with isoflavones (1 and 10 μM) for 3 days. The relative induction of antioxidant activity was determined by luciferase assay. The activity of untreated Ava-5 cells was considered to be 1.

## COc1ccc(CCNCC(O)COc2ccc3c(=O)c(-c4ccc(OC)c(OC)c4)coc3c2)cc1OC (stereo not drawn) [Compound 6b, 7-{3-[(3,4-Dimethoxyphenethyl)amino]-2-hydroxypropoxy}-3-(3,4-dimethoxyphenyl)-4H-chromen-4-one]
HCV replication; three days
  anti-HCV activity compared with ribavirin (in words): more active than ribavirin
HCV replication; CC50/EC50
  SI (selectivity index, CC50/EC50): 21.08
HCV replication; Hepatitis C virus, Ava5, 72 h, treated for three days, firefly luciferase assay, read-out: EC50 (concentration resulting in a 50% inhibition in virus production / HCV replication)
  EC50: 6.53 ± 0.57 µM
HCV replication; ratio of EC50 values
  anti-HCV activity relative to ribavirin: approximately 2 fold
[1]
  CC50 at 72 h: 138 ± 6.91 µM
ava-5 cells; Ava5 cells, 2.5-20 μM, 3 days
  cell cytotoxicity at the antiviral test concentrations: without cell cytotoxicity
ava-5 cells; Ava-5 cells
  cytotoxicity compared with ribavirin (in words): less cytotoxic than ribavirin
HCV RNA
  HCV RNA replication / expression: dose-dependently reduced; also recorded: inhibit the HCV RNA expression in Ava5 cells in a dose-dependent manner
[2]
  HCV protein synthesis: dose-dependently reduced
HO-1 protein expression
  HO-1 protein level: could induce HO-1 protein level
[3]
  ARE-mediated luciferase activity: increased ARE-mediated luciferase activity
other
  melting point: 134 to 135 °C
